Reference: PMC4356640 (Pharmacogenetics and genomics, 2015)

How the values were obtained:
[1] = Tamoxifen and metabolite steady state plasma concentrations; conditions: for pharmacokinetics differ by CYP2D6 genotype: 3 and 6 month visits; for 3m or 6m steady state concentrations correlated with age: p-values > 0.11
CYP2D6 enzyme activity = experiment: 13C-dextromethorphan breath test; format: in vivo, human

## CC/C(=C(\c1ccc(O)cc1)c1ccc(OCCN(C)C)cc1)c1ccccc1 [4HT, 4-hydroxytamoxifen]
[1]
  pharmacokinetics differ by CYP2D6 genotype: Neither tamoxifen, NDMT, or 4HT pharmacokinetics were found to differ by CYP2D6 genotype
  3m or 6m steady state concentrations correlated with age: no evidence

## COc1ccc2c(c1)[C@]13CCCC[C@@H]1[C@H](C2)N(C)CC3 [DM, Dextromethorphan]
CYP2D6 enzyme activity; Spearman, p < 0.0001, n=77
  correlation (r) of baseline DM-BT values with CYP2D6 genotype: 0.55
CYP2D6 enzyme activity; Spearman, p < 0.001, n=55
  correlation (r) of 6m DM-BT values with CYP2D6 genotype: 0.55
CYP2D6 enzyme activity; Spearman, p< 0.0001, n=60
  correlation (r) of 3m DM-BT values with CYP2D6 genotype: 0.58

## CC/C(=C(\c1ccc(O)cc1)c1ccc(OCCNC)cc1)c1ccccc1 [Endx, endoxifen]
[1]; Spearman, p < 0.0001, n=57
  correlation (r) of CYP2D6 genotype with 3m Endx Css: 0.47
  correlation (r) of CYP2D6 genotype with 3m Endx/NDMT ratio: 0.60
[1]; Spearman, p<0.0001, n=54
  correlation (r) of CYP2D6 genotype with 6m Endx/NDMT ratio: 0.61
  correlation (r) of CYP2D6 genotype with 6 month Endx Css: 0.56
[1]; comparison with ref 14
  concentrations of endoxifen, fold lower than that of Lien et al: ~8 fold
[1]; human, plasma, oral, 20 mg daily, Median Endx concentration (range), Endx Css, 3 months, CYP2D6 PM/PM, activity score 0, n=2
  concentration at 3 months: 5.5 nM
[1]; human, plasma, oral, 20 mg daily, Median Endx concentration (range), Endx Css, 6 months, CYP2D6 PM/PM, activity score 0, n=2
  concentration at 6 months: 6.7 nM
[1]
  3m or 6m steady state concentrations correlated with age: no evidence

## CC/C(=C(\c1ccccc1)c1ccc(OCCNC)cc1)c1ccccc1 [NDMT, N-desmethyltamoxifen]
[1]
  pharmacokinetics differ by CYP2D6 genotype: Neither tamoxifen, NDMT, or 4HT pharmacokinetics were found to differ by CYP2D6 genotype
  3m or 6m steady state concentrations correlated with age: no evidence

## Fc1ccc([C@@H]2CCNC[C@H]2COc2ccc3c(c2)OCO3)cc1 [paroxetine]
CYP2D6 enzyme activity; one patient who took paroxetine prior to the baseline visit
  baseline DOB30 values lower than at 3 and 6 month visits after paroxetine was discontinued: > 50%

## CC/C(=C(\c1ccccc1)c1ccc(OCCN(C)C)cc1)c1ccccc1 [tamoxifen, Tamoxifen, reference compound]
[1]
  3m or 6m steady state concentrations correlated with age: no evidence
